# Data from patent publication US20100215588A1, “THERAPEUTIC DELIVERY OF INHIBITORY NUCLEIC ACID MOLECULES TO THE RESPIRATORY SYSTEM” (priority 2007, published 2010).
# Assays:
# A549 lung tumors = assay: A549 lung tumor growth after inhaled Nrf2 siRNA alone or with carboplatin; format: in vivo, SCID-Beige mice; conditions: lung tumor weights; siRNA 100 μg/dose by nebulizer three times a week for 4 weeks; carboplatin 30 mg/kg i.p. twice/week
# Method: (§1) Tumor Xenografts: A549 cells (5×10^6) were injected into the hind leg of male athymic nude mice and the tumor was measured weekly. The tumor volumes were measured using the following formula: [length (mm)×width (mm)×width (mm)×0.52]. In the lung metastasis experiments, 2×10^6 A549-C8-luc cells were injected into SCID-Beige mice (Charles River, Mass.) intravenously.
# (§2) For in vivo experiments, all siRNA compounds were chemically synthesized being stabilized by alternating 2-O′-Me modifications on both strands. The sequence of siRNA targeting human Nrf2 used for in vivo experiments is 5′-UCCCGUUUGUAGAUGACAA-3′ (sense) and 5′-UUGUCAUCUACAAACGGGA-3′ (antisense). The sequence of control siRNA targeting GFP is 5′-[…]-3′ (sense) and 5′-[…]-3′ (antisense).
# For aerosol delivery of Nrf2 or GFP siRNA into lung tumors, 100 μg of siRNA duplex diluted in PBS was aerosolized using a nebulizer. Mice were given three dose of siRNA (100 μg/dose) every week, for 4 weeks, using a nebulizer. Intraperitoneal injections of carboplatin were given at a dose of 30 mg/kg body weight twice/week.
# (§3) In Vivo Imaging: Animals inoculated with A549-C8-luc cells, which express a luciferase reporter gene, were anesthetized and injected intraperitoneally with 250 ul of luminescent substrate (15 mg/ml stock) D-Luciferin Firefly (Xenogen Cat# XR-1001). The animals were then imaged and analyzed by using the Xenogen IVIS Optical Imaging Device in the Johns Hopkins Oncology Center.
# Statistical Analysis-Statistical comparisons were performed by Student's t-tests. A value of p<0.05 was considered statistically significant. Tumor weights and changes in tumor volume were summarized using descriptive statistics. Differences in tumor measures between treatment groups were examined using linear regression models with generalized estimating equations (GEE). The distributions of both tumor measurements were skewed, so log transformations were used.
# Nrf2 = assay: ARE-Luc Nrf2-dependent reporter activity in orthotopic lung tumors, in vivo imaging; set-up: species or system SCID-Beige mice; conditions: siRNA by nebulizer; mice with A549-C8-luc lung tumors; FIG. 5
# Method: as §1, §2
# For aerosol delivery of Nrf2 or GFP siRNA into lung tumors, 100 μg of siRNA duplex diluted in PBS was aerosolized using a nebulizer. Mice were given three dose of siRNA (100 μg/dose) every week, for 4 weeks, using a nebulizer. […]
# as §3
# RTP801 = assay: Short-term (7 day) cigarette smoking model, intralung delivery of RTP801 siRNA; format: in vivo, mouse (C57BL6)
# Method: CS-induced inflammation was induced by 7 day smoking in 2 groups of C57BL6 mice, 10 mice per group. Group 1: CS+delivery of control siRNA (REDD8) siRNA; Group 2: CS+RTP801 siRNA (REDD14). Control groups of mice were instilled with either type of siRNA but kept in room air conditions. The animals were evaluated as in the above experiment with the Knock-Out mice.
# Exposure was carried out (7 h/day, 7 days/week) by burning 2R4F reference cigarettes (2.45 mg nicotine per cigarette; purchased from the Tobacco Research Institute, University of Kentucky, Lexington, Ky., USA) using a smoking machine (Model TE-10, Teague Enterprises, Davis, Calif., USA). Each smoldering cigarette was puffed for 2 s, once every minute for a total of eight puffs, at a flow rate of 1.05 L/min, to provide a standard puff of 35 cm^3. The smoke machine was adjusted to produce a mixture of sidestream smoke (89%) and mainstream smoke (11%) by burning five cigarettes at one time. Chamber atmosphere was monitored for total suspended particulates and carbon monoxide, with concentrations of 90 mg/m3 and 350 ppm, respectively.
# Following exposure to CS or instillation of RTP801 expressing plasmid, the mice were anesthetized with sodium pentobarbital. […] The total number of cells in the lavage fluid was determined, and 2×10^4 cells were cytocentrifuged (Shandon Southern Products, Pittsburgh, Pa., USA) onto glass slides and stained with Wright-Giemsa stain. […]
# Immunohistochemical staining of active caspase-3 assay was performed using anti-active caspase-3 antibody and the active caspase-3-positive cells were counted with a macro, using Image Pro Plus program. […]
# The activity of caspase-3 activity was measured in lung tissue extracts using a fluorometric assay according to the manufacturer's instructions. […] After removal of nuclei and cellular debris, the supernatant (300 μg protein) was then incubated with the pro-fluorescent substrate at room temperature for 1 h and the fluorescence intensity was measured utilizing a Typhoon phosphoimager (Amersham Biosciences, Inc., Piscataway, N.J., USA). […]
# [1] = Qualitative distribution of REDD14Cy3.5 siRNA in lung and kidney (fluorescence analysis); format: in vivo, cynomolgus monkeys
# Method: On Day 15 of the study, two of the available animals (101 and 102) were administered a target dose of 35 mg/kg of a mixture of I5NP and REDD14Cy3.5 (fluorescence-labelled) siRNA via an oronasal mask as a nebulized aerosol generated by the Aeroneb device. A 2.0 L/min dilution airflow was used. The total dose of siRNA administered was calculated, based on the bodyweights and measured respiratory minute volumes of the animals, and on the achieved output of the Aeroneb device using the formulation concentration of 40 mg/mL of siRNA. The administered dose was adjusted by changing the exposure times for the animals
# At the time of necropsy following Treatment 2, the lungs, bronchi and trachea of animal 102 were removed from the animal. The lungs were perfused with 4% paraformaldehyde, introduced using a syringe, via the trachea and/or bronchus and stored in this fixative at ambient temperature for a period of approximately 21 hours. Following this, as much as possible of the original fixative fluid was withdrawn by syringe via the trachea/bronchus and replaced with 0.2% paraformaldehyde. The fixed lungs were analyzed for fluorescence distribution.
# At the time of necropsy following Treatment 2, the right kidney of animal 102 was removed from the animal. The kidney was dissected into quarters by making one longitudinal and one transverse cut, each to pass through the hilus, and then immersed in 4% paraformaldehyde and refrigerated for approximately 21 hours. Following this, the fixing solution was changed to 0.2% paraformaldehyde and the kidney was analyzed for fluorescence distribution.
# Following Treatment 2, lung and kidney samples from animal 102 were analyzed for distribution of fluorescence (from REDD14Cy3.5 siRNA). The results were considered to be qualitative.
# [2] = Treatment 2, animal 102, approximately 30 minutes post-end of dosing, qualitative
compound,measurement,setting,value
"N.N.O=C([O-])C1(C(=O)[O-])CCC1.[Pt+2] [Vehicle siRNA + carboplatin, carboplatin]",Mean (SD) tumor weight,A549 lung tumors,495 (49.5) mg
"GFP siRNA: control siRNA targeting GFP; sense 5′-GGCUACGUCCAGGAGCGCACC-3′, antisense 5′-GGUGCGCUCCUGGACGUAGCC-3′ (alternating 2'-O-methyl on both strands, starting position not given here)",Mean (SD) tumor weight,A549 lung tumors,710 (167.93) mg
"Nrf2 siRNA: siRNA targeting human Nrf2, alternating 2-O′-Me; sense 5′-UCCCGUUUGUAGAUGACAA-3′, antisense 5′-UUGUCAUCUACAAACGGGA-3′ (alternating 2'-O-methyl on both strands, starting position not given here)",Nrf2 reporter activity in vivo,Nrf2,inhibited Nrf2 reporter activity in vivo
same,Mean (SD) tumor weight,A549 lung tumors,802 (172.25) mg
"REDD14: exemplary siRNA in aqueous solution directed against gene RTP801; sense GUGCCAACCUGAUGCAGCU, antisense AGCUGCAUCAGGUUGGCAC (chemistry not fully specified)",RTP801 expression in the lungs,"RTP801; 50 μg siRNA instilled intranasally, FIG. 3b",reduction of RTP801 expression in the lungs
same,"cigarette smoking induced apoptosis of lung septal cells (activated caspase staining, caspase 3 immunoblot)","RTP801; 1 week of cigarette smoking, FIG. 3c",partially protected from cigarette smoking induced apoptosis of lung septal cells
same,cigarette smoking induced inflammation (number of inflammatory bronchoalveolar lavage cells),"RTP801; 1 week of cigarette smoking, versus control siRNA REDD8, FIG. 3a",partially protected from cigarette smoking induced inflammation
"REDD14Cy3.5: fluorescent-labelled (Cy3.5) REDD14, RTP801 inhibiting siRNA; sense GUGCCAACCUGAUGCAGCU, antisense AGCUGCAUCAGGUUGGCAC (Cy3.5 fluorescent label, position and strand not given here)",fluorescent label in lungs,[1]; [2],detected in all sections taken from all lobes of the lungs
same,fluorescent label in right kidney,[1]; [2],little label detected in the right kidney
same,"distribution in lung, I5NP (hybridization) and REDD14Cy3.5 (fluorescence) compared",[1]; after oronasal inhalation,little difference in the distribution of the two test articles in lung
